Columns and labels:
TRPML1 = TRPML1 (Homo sapiens, UniProt Q9GZU1); assay: Calcium flux in HEK293 overexpressing TRPML1 plasma membrane variant (FLIPR, Calcium 6 dye); format: cell-based; conditions: HEK293/TRPML1-PM clone A5 cells; 4-parameter logistic fit; read-out: TRPML1 calcium flux (FLIPR) dose response: EC50
Summary of the method: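 HEK293 clone expressing plasma-membrane-targeted TRPML1 (N- and C-terminal dileucine motifs deleted), loaded with Calcium 6 dye for 2 h at 37 °C in HBSS/20 mM HEPES pH 7.4. Fluorescence recorded 10 s baseline then 170 s after compound addition. Max-minus-min response over baseline fitted by 4-parameter logistic for EC50.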

TFEB = TFEB translocation assay in HeLa cells (nuclear to cytoplasmic TFEB ratio, high-content imaging); format: cell-based; conditions: 90 mins incubation at 37° C., ratio of nuclear to cytoplasmic TFEB
Method: Example B2. TFEB Translocation Assay
Rabbit TFEB antibody, Cell Signaling Technology #4240S
PFA 16% MeOH-free, Election Microscopy Sciences #50-980-487
HCS CellMask Deep Red, ThermoFisher Scientific #H32721
Plates: Perkin Elmer Phenoplate #605730 black optically clear, tissue culture treated 384-well plate
Example B2.2 Method, Day 1: Cells Seeded in 384WP
Cells were seeded in the afternoon. The outer one row of the plate was not used to avoid outer well edge effects.
HeLa cells were detached using trypsin, and the cells were counted using a cell counter.
4000 HeLa cells were seeded per well in […] growth media (DMEM with 10% FBS, 1 mM sodium pyruvate and Pen-Strep).
Example B2.3 Method, Day 2: Assay with TRPML1 Compounds+Staining
Compounds were added to cells using a Tecan D300e dispenser.
Cells were incubated for 90 mins at 37° C. with the compounds (compound range: 80 nM-[…] (2× step dilution—8 dilution steps, 3 replicates per condition)
The cells were fixed by adding 16.5 μL of 16% PFA (4% final) and incubating for 15 min at room temperature.
The cells were washed with 3× in PBS-TX (PBS+0.1% Triton X-100)−1×100 μL followed by 2×50 μL.
The cells were blocked and permeabilized in 30 μL of blocking buffer (PBS-TX+5% goat serum) for 1 h.
The cells were incubated with TFEB antibody (1:200, CST 4240S) in 30 μL blocking buffer overnight at 4° C. The plates were kept damp to avoid evaporation.
Example B2.4 Method, Day 3: Staining+Imaging
The cells were washed 3× in PBS-TX—3×100 μL with a Biotek EL406 washer.
The cells were incubated with Goat anti-Rb Alexa-Fluor 488 (1:2000), cell mask (1:10,000) and Hoechst (1:10,000) in 30 μL blocking buffer for 1 h at room temperature. The solution was dispensed using a 5 μL peristaltic cassette (EL406).
The cells were washed 3× in PBS-TX—3×100 μL with a EL406 washer, then […] PBS was dispensed using a 5 μL peristaltic cassette (EL406).
The cells were imaged on an Operetta CLS High-content imaging system using a 20× water immersion objective (NA 1.0) the same day.
Image analysis was performed using Harmony V4.9 (Perkin Elmer). Briefly, nuclei were segmented from background-corrected images using Hoechst intensity, and cell body segmented using HCS CellMask DeepRed. A sliding parabola filter was applied to the AlexaFluor 488 channel (TFEB), before sum pixel intensity in the nuclear and cytoplasmic regions was calculated. A ratio of nuclear to cytoplasmic TFEB was used to define TFEB translocation from the cytosolic to nuclear compartment. The EC50 values derived by fitting the data to a sigmoidal dose response curve using Prism 9 (Graphpad).

TRPML1, sequence (Q9GZU1 17-572 limits assumed): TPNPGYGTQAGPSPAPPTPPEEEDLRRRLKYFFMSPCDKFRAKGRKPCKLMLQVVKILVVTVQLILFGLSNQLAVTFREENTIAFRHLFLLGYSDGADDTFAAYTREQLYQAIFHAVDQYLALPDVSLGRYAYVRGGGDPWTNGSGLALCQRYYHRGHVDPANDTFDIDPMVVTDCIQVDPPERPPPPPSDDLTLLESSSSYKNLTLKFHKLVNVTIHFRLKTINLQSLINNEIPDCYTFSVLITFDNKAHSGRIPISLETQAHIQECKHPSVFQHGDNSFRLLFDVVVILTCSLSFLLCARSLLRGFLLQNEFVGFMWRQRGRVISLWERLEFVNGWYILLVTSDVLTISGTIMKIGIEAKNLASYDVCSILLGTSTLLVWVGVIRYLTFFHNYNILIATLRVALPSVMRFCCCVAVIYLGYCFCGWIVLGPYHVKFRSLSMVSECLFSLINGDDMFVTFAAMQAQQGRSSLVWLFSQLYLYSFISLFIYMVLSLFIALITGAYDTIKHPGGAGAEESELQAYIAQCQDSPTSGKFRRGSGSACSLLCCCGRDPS

Structure (SMILES)	EC50 (TRPML1)	EC50 (TFEB; Homo sapiens, HeLa, 1.5 h)	EC50 (TFEB)
CN(c1ccccc1NS(=O)(=O)c1ccc(S(=O)(=O)N(C)C)cc1)C1CCC(C)(C)CC1 [Compound 29, N1-(2-((4,4-dimethylcyclohexyl)(methyl)amino)phenyl)-N4,N4-dimethylbenzene-1,4-disulfonamide]	0.51 µM	2.27 µM	
CN(CC1(F)CCCC1)c1ccccc1NS(=O)(=O)c1ccc(S(=O)(=O)N(C)C)cc1 [Compound 93, N1-(2-(((1-fluorocyclopentyl)methyl)(methyl)amino)phenyl)-N4,N4-dimethylbenzene-1,4-disulfonamide]	0.857 µM	0.649 µM	
CN(Cc1ccsc1)c1ccccc1NS(=O)(=O)c1ccc(S(=O)(=O)N(C)C)cc1 [Compound 13, N1,N1-dimethyl-N4-(2-(methyl(thiophen-3-ylmethyl)amino)phenyl)benzene-1,4-disulfonamide]	0.67 µM	1.35 µM	
CN(c1c(F)cccc1NS(=O)(=O)c1ccc(S(=O)(=O)N(C)C)cc1)C1CCCCC1 [Compound 12, N1-(2-(cyclohexyl(methyl)amino)-3-fluorophenyl)-N4,N4-dimethylbenzene-1,4-disulfonamide]	0.72 µM	< 0.08 µM	
CCN(C)c1c(Cl)cccc1NS(=O)(=O)c1ccc(S(=O)(=O)N(C)C)cc1 [Compound 78, N1-(3-chloro-2-(ethyl(methyl)amino)phenyl)-N4,N4-dimethylbenzene-1,4-disulfonamide]	0.868 µM	1.46 µM	
CN(CC1(C)CCOCC1)c1ccccc1NS(=O)(=O)c1ccc(S(=O)(=O)N(C)C)cc1 [Compound 10, N1,N1-dimethyl-N4-(2-(methyl((4-methyltetrahydro-2H-pyran-4-yl)methyl)amino)phenyl)benzene-1,4-disulfonamide]	0.87 µM	2.34 µM	
CN(Cc1cscn1)c1c(Cl)cccc1NS(=O)(=O)c1ccc(S(=O)(=O)N(C)C)cc1 [Compound 64, N1-(3-chloro-2-(methyl(thiazol-4-ylmethyl)amino)phenyl)-N4,N4-dimethylbenzene-1,4-disulfonamide]	0.453 µM	1.39 µM	
Cc1cccc(NS(=O)(=O)c2ccc(S(=O)(=O)N(C)C)cc2)c1N(C)Cc1cscn1 [Compound 71, N1,N1-dimethyl-N4-(3-methyl-2-(methyl(thiazol-4-ylmethyl)amino)phenyl)benzene-1,4-disulfonamide]	0.818 µM	4.04 µM	
CCN(CC)c1c(Cl)cccc1NS(=O)(=O)c1ccc(S(=O)(=O)N(C)C)cc1 [Compound 77, N1-(3-chloro-2-(diethylamino)phenyl)-N4,N4-dimethylbenzene-1,4-disulfonamide]	0.472 µM	0.705 µM	
CN(Cc1cncs1)c1c(Cl)cccc1NS(=O)(=O)c1ccc(S(=O)(=O)N(C)C)cc1 [Compound 73, N1-(3-chloro-2-(methyl(thiazol-5-ylmethyl)amino)phenyl)-N4,N4-dimethylbenzene-1,4-disulfonamide]	0.996 µM	4.85 µM	
CN(CC1CCCCO1)c1ccccc1NS(=O)(=O)c1ccc(S(=O)(=O)N(C)C)cc1 (centres unmarked) [Compound 108, N1,N1-dimethyl-N4-(2-(methyl((tetrahydro-2H-pyran-2-yl)methyl)amino)phenyl)benzene-1,4-disulfonamide]	0.79 µM	0.431 µM	
CN(c1ccccc1NS(=O)(=O)c1ccc(S(=O)(=O)N(C)C)cc1)C1CCOC2(CCC2)C1 (centres unmarked) [Compound 87, N1,N1-dimethyl-N4-(2-(methyl(5-oxaspiro[3.5]nonan-8-yl)amino)phenyl)benzene-1,4-disulfonamide]	0.823 µM	0.674 µM	
CN(c1ccccc1NS(=O)(=O)c1ccc(S(=O)(=O)N(C)C)cc1)C12CC(C)(C1)C2 [Compound 115, N1,N1-dimethyl-N4-(2-(methyl(3-methylbicyclo[1.1.1]pentan-1-yl)amino)phenyl) benzene-1,4-disulfonamide]	1.1 µM	0.758 µM	

Compounds with a lower EC50 (TRPML1), results first:

EC50 (TRPML1)	EC50 (TFEB; Homo sapiens, HeLa, 1.5 h)	EC50 (TFEB)	Structure (SMILES)
0.42 µM	0.353 µM		CC(C)CCN(C)c1c(Cl)cccc1NS(=O)(=O)c1ccc(S(=O)(=O)N(C)C)cc1 [Compound 67, N1-(3-chloro-2-(isopentyl(methyl)amino)phenyl)-N4,N4-dimethylbenzene-1,4-disulfonamide]
0.42 µM	0.54 µM		CN(CC1CCCC1)c1ccccc1NS(=O)(=O)c1ccc(S(=O)(=O)N(C)C)cc1 [Compound 25, N1-(2-((cyclopentylmethyl)(methyl)amino)phenyl)-N4,N4-dimethylbenzene-1,4-disulfonamide]
0.412 µM	0.388 µM		[2H]C([2H])([2H])N(c1ccccc1NS(=O)(=O)c1ccc(S(=O)(=O)N(C)C)cc1)C1CCCCC1 [Compound 102, N1-(2-(cyclohexyl(methyl-d3)amino)phenyl)-N4,N4-dimethylbenzene-1,4-disulfonamide]
0.353 µM	0.0837 µM		Cc1ccc(N(C)C2CCCCC2)c(NS(=O)(=O)c2ccc(S(=O)(=O)N(C)C)cc2)c1 [Compound 117, N1-(2-(cyclohexyl(methyl)amino)-5-methylphenyl)-N4,N4-dimethylbenzene-1,4-disulfonamide]
0.35 µM	1.1 µM		CN(C)S(=O)(=O)c1ccc(S(=O)(=O)Nc2ccccc2N(C)[C@H]2CC[C@H](C)CC2)cc1 [Compound 28, N1,N1-dimethyl-N4-(2-(methyl((1r,4r)-4-methylcyclohexyl)amino)phenyl)benzene-1,4-disulfonamide]
0.3 µM	0.83 µM		CN(Cc1ccccc1)c1ccccc1NS(=O)(=O)c1ccc(S(=O)(=O)N(C)C)cc1 [Compound 26, N1-(2-(benzyl(methyl)amino)phenyl)-N4,N4-dimethylbenzene-1,4-disulfonamide]
0.28 µM	1.87 µM		CN(c1ccccc1NS(=O)(=O)c1ccc(S(=O)(=O)N(C)C)cc1)C1CCCC1 [Compound 24, N1-(2-(cyclopentyl(methyl)amino)phenyl)-N4,N4-dimethylbenzene-1,4-disulfonamide]
0.276 µM	0.529 µM		CN(c1ccccc1NS(=O)(=O)c1ccc(S(=O)(=O)N(C)C)cc1)C1CCCCC1 [Compound 118, N1-(2-(cyclohexyl(methyl)amino)phenyl)-N4,N4-dimethylbenzene-1,4-disulfonamide]
0.274 µM	1.27 µM	0.915 µM	CN(CC1(F)CC1)c1ccccc1NS(=O)(=O)c1ccc(S(=O)(=O)N(C)C)cc1 [Compound 95, N1-(2-(((1-fluorocyclopropyl)methyl)(methyl)amino)phenyl)-N4,N4-dimethylbenzene-1,4-disulfonamide]
0.26 µM	0.27 µM		CN(c1ccccc1NS(=O)(=O)c1ccc(S(=O)(=O)N(C)C)cc1)C1CCC(C)(C)C1 (centres unmarked) [Compound 20, N1-(2-((3,3-dimethylcyclopentyl)(methyl)amino)phenyl)-N4,N4-dimethylbenzene-1,4-disulfonamide]
0.25 µM	0.87 µM		CN(Cc1cncs1)c1ccccc1NS(=O)(=O)c1ccc(S(=O)(=O)N(C)C)cc1 [Compound 55, N1,N1-dimethyl-N4-(2-(methyl(thiazol-5-ylmethyl)amino)phenyl)benzene-1,4-disulfonamide]
0.236 µM	0.927 µM		CN(CC12CC(C1)C2)c1ccccc1NS(=O)(=O)c1ccc(S(=O)(=O)N(C)C)cc1 [Compound 66, N1-(2-((bicyclo[1.1.1]pentan-1-ylmethyl)(methyl)amino)phenyl)-N4,N4-dimethylbenzene-1,4-disulfonamide]
0.0772 µM	0.199 µM		CN(c1c(C#N)cccc1NS(=O)(=O)c1ccc(S(=O)(=O)N(C)C)cc1)C1CCCCC1 [Compound 91, N1-(3-cyano-2-(cyclohexyl(methyl)amino)phenyl)-N4,N4-dimethylbenzene-1,4-disulfonamide]
